According to the NIST ThermoML archive (doi:10.1021/je300345m):

Assay: xn = mol fraction of the nth substance listed
Conditions: Liquid, Vibrating tube method

CN(CCO)CCO [N-methyldiethanolamine] + O
mass density [kg/m3]
Conditions | x1 = 0.0609 | x1 = 0.0916 | x1 = 0.1313 | x1 = 0.1848 | x1 = 0.2608 | x1 = 0.3768 | x1 = 0.5764 | x1 = 1
298.15 K, 100 kPa | 1025.2 | 1035.6 | 1043.3 | 1049.7 | 1053.6 | 1052.3 | 1046 | 1036
303.15 K, 100 kPa | 1022.8 | 1032.8 | 1040.9 | 1046.1 | 1049.9 | 1048.6 | 1042.3 | 1032.4
308.15 K, 100 kPa | 1020.3 | 1029.9 | 1037.6 | 1042.5 | 1046.2 | 1044.8 | 1038.4 | 1028.6
313.15 K, 100 kPa | 1017.7 | 1026.9 | 1034.3 | 1038.8 | 1042.4 | 1040.9 | 1034.6 | 1024.8
318.15 K, 100 kPa | 1014.9 | 1023.8 | 1030.8 | 1034.7 | 1038.5 | 1037 | 1030.8 | 1021
323.15 K, 100 kPa | 1012 | 1020.6 | 1027.3 | 1031.1 | 1034.6 | 1033.1 | 1026.9 | 1017.2
328.15 K, 100 kPa | 1009 | 1017.2 | 1023.7 | 1027.3 | 1030.6 | 1029.1 | 1022.9 | 1013.3
333.15 K, 100 kPa | 1005.9 | 1013.8 | 1020.1 | 1023.6 | 1026.6 | 1025 | 1019 | 1009.4
338.15 K, 100 kPa | 1002.7 | 1010.3 | 1016.3 | 1019.8 | 1022.5 | 1020.9 | 1015 | 1005.6
343.15 K, 100 kPa | 999.3 | 1006.7 | 1012.5 | 1015.9 | 1018.4 | 1016.8 | 1010.9 | 1001.7
348.15 K, 100 kPa | 995.9 | 1003 | 1008.5 | 1011.9 | 1014.2 | 1012.6 | 1006.9 | 997.7
353.15 K, 100 kPa | 992.3 | 999.2 | 1004.6 | 1007.7 | 1009.9 | 1008.4 | 1002.7 | 993.8
358.15 K, 100 kPa | 988.7 | 995.3 | 1000.4 | 1003.5 | 1005.2 | 1004.1 | 998.6 | 989.9
363.15 K, 100 kPa | 984.9 | 991.3 | 996.3 | 999.2 | 1000.9 | 999.8 | 994.4 | 985.9
373.15 K, 700 kPa | 977.2 | 982.9 | 987.6 | 990.7 | 992 | 990.6 | 985.7 | 978.6
383.15 K, 700 kPa | 968.8 | 974.1 | 978.5 | 981.4 | 982.6 | 981.4 | 976.9 | 970.3
393.15 K, 700 kPa | 960.2 | 965.2 | 969.3 | 972.1 | 973.3 | 972.2 | 968.1 | 962.1
403.15 K, 700 kPa | 951.2 | 955.9 | 959.8 | 962.5 | 963.7 | 962.9 | 959.3 | 953.9
413.15 K, 700 kPa | 941.9 | 946.4 | 950.1 | 952.7 | 954 | 953.4 | 950.4 | 945.6
423.15 K, 700 kPa | 931.9 | 936.1 | 939.6 | 942.3 | 943.6 | 943.4 | 940.9 | 937

OCCNCCO [diethanolamine] + O
mass density [kg/m3]
Conditions | x1 = 0.0684 | x1 = 0.1025 | x1 = 0.1463 | x1 = 0.2045 | x1 = 0.2856 | x1 = 0.4067 | x1 = 0.6066 | x1 = 1
298.15 K, 100 kPa | 1034 | 1047.2 | 1059.5 | 1071.4 | 1081 | 1088 | 1092.2 | 1093.6
303.15 K, 100 kPa | 1031.8 | 1044.8 | 1056.9 | 1068.5 | 1077.9 | 1085 | 1088.9 | 1090.4
308.15 K, 100 kPa | 1029.7 | 1042.4 | 1054.2 | 1065.6 | 1074.9 | 1081.8 | 1085.8 | 1087.1
313.15 K, 100 kPa | 1027.2 | 1039.6 | 1051.3 | 1062.6 | 1071.7 | 1078.7 | 1082.7 | 1083.8
318.15 K, 100 kPa | 1024.9 | 1037 | 1048.4 | 1059.5 | 1068.6 | 1075.5 | 1079.5 | 1080.6
323.15 K, 100 kPa | 1022.2 | 1034.2 | 1045.4 | 1056.6 | 1065.3 | 1072.2 | 1076.2 | 1077.4
328.15 K, 100 kPa | 1019.5 | 1031.4 | 1042.4 | 1053.2 | 1062.1 | 1068.9 | 1073 | 1074.1
333.15 K, 100 kPa | 1016.6 | 1028.3 | 1039.2 | 1049.9 | 1058.8 | 1065.6 | 1069.6 | 1070.8
338.15 K, 100 kPa | 1013.8 | 1025.2 | 1036 | 1046.5 | 1055.3 | 1062.2 | 1066.3 | 1067.4
343.15 K, 100 kPa | 1010.6 | 1022 | 1032.6 | 1043.1 | 1051.8 | 1058.8 | 1062.9 | 1064
348.15 K, 100 kPa | 1007.5 | 1018.8 | 1029.3 | 1039.7 | 1048.3 | 1055.3 | 1059.4 | 1060.6
353.15 K, 100 kPa | 1004.2 | 1015.3 | 1025.8 | 1036 | 1044.8 | 1051.7 | 1055.9 | 1057.2
358.15 K, 100 kPa | 1000.8 | 1011.9 | 1022.3 | 1032.5 | 1041.1 | 1048 | 1052.4 | 1053.7
363.15 K, 100 kPa | 997.3 | 1008.3 | 1018.6 | 1028.7 | 1037.2 | 1044.4 | 1048.8 | 1050.1
373.15 K, 700 kPa | 990.2 | 1000.9 | 1011.5 | 1021.2 | 1029.9 | 1037.2 | 1041.8 | 1043.3
383.15 K, 700 kPa | 982.3 | 992.9 | 1003.3 | 1012.9 | 1021.7 | 1028.9 | 1033.8 | 1035.5
393.15 K, 700 kPa | 974.2 | 984.7 | 995.1 | 1004.7 | 1013.5 | 1020.9 | 1026 | 1028.1
403.15 K, 700 kPa | 965.8 | 976.3 | 986.7 | 996.2 | 1005.1 | 1012.8 | 1018.2 | 1020.5
413.15 K, 700 kPa | 957.1 | 967.5 | 977.9 | 987.5 | 996.5 | 1004.5 | 1010.2 | 1012.9
423.15 K, 700 kPa | 947.9 | 958.1 | 969 | 978.2 | 987.2 | 995.4 | 1001.7 | 1004.8
